Measured values reported in ChEMBL document CHEMBL5303304, “EUbOPEN Chemogenomics Library - IncuCyte” (2023).

How the values were obtained:
Assay type in all cases: toxicity, cell-based
U2OS = assay: Incucyte cell viability with U2OS; conditions: human, 10 µM, compound concentration 10 uM
Fibroblast = assay: Incucyte cell viability with human fibroblast; conditions: 10 µM, compound concentration 10 uM
HEK-293T = assay: Incucyte cell viability with HEK293T; conditions: human, 10 µM, compound concentration 10 uM
Note: unitless GR value; below 1 slowed growth and below 0 cell loss.

| Structure (SMILES) | Growth Rate (U2OS; 12 h, replicate number 1) | Growth Rate (Fibroblast; 0 h, replicate number 2) | Growth Rate (Fibroblast; 6 h, replicate number 1) | Growth Rate (Fibroblast; 6 h, replicate number 2) | Growth Rate (Fibroblast; 12 h, replicate number 2) | Growth Rate (HEK-293T; 0 h, replicate number 1) | Growth Rate (HEK-293T; 0 h, replicate number 2) | Growth Rate (HEK-293T; 6 h, replicate number 1) | Growth Rate (HEK-293T; 6 h, replicate number 2) | Growth Rate (HEK-293T; 12 h, replicate number 2) | Growth Rate (HEK-293T; 18 h, replicate number 2) | Growth Rate (HEK-293T; 24 h, replicate number 2) | Growth Rate (U2OS; 0 h, replicate number 1) | Growth Rate (U2OS; 6 h, replicate number 1) | Growth Rate (U2OS; 18 h, replicate number 1) | Growth Rate (U2OS; 18 h, replicate number 2) | Growth Rate (U2OS; 24 h, replicate number 1) | Growth Rate (U2OS; 24 h, replicate number 2) | Growth Rate (Fibroblast; 18 h, replicate number 2) | Growth Rate (Fibroblast; 24 h, replicate number 2) | other results |
| --- | --- | --- | --- | --- | --- | --- | --- | --- | --- | --- | --- | --- | --- | --- | --- | --- | --- | --- | --- | --- | --- |
| O=C(O)CCCc1cc2cc(Cl)ccc2n1S(=O)(=O)c1ccc2ncsc2c1 [LANIFIBRANOR] | 0.94 | 0.65 | 0.58 | 0.28 | 0.76 | 0.87 | -0.8 | 0.78 | 0.49 | 0.73 | 0.59 | 0.63 |  |  |  |  |  |  |  |  |  |
| CS(=O)(=O)CCNCc1ccc(-c2ccc3ncnc(Nc4ccc(OCc5cccc(F)c5)c(Cl)c4)c3c2)o1 [LAPATINIB] | 0.78 |  | -0.42 | 0.69 | 0.65 | 0.86 |  |  | 0.95 | 0.94 | 0.95 | 0.87 | 0.96 | 0.66 | 0.86 | 0.99 | 0.9 | 0.98 | 0.7 |  | Growth Rate (U2OS; 6 h, replicate number 2): 0.93; Growth Rate (U2OS; 12 h, replicate number 2): 0.92; Growth Rate (Fibroblast; 0 h, replicate number 1): 0.88 |
| C=CC(=O)Nc1cc(Nc2nccc(-n3cc(CN(C)C)c(-c4ccccc4)n3)n2)c(OC)cc1N1CCOCC1 [LAZERTINIB] | 0.19 |  | 0.27 | -0.96 | 0.67 |  | 0.8 | 0.45 |  |  |  |  |  | -0.48 | 0.4 | 0.96 | 0.78 | 0.91 |  | 0.86 | Growth Rate (U2OS; 0 h, replicate number 2): -0.99; Growth Rate (U2OS; 6 h, replicate number 2): 0.77; Growth Rate (U2OS; 12 h, replicate number 2): 0.92; Growth Rate (Fibroblast; 12 h, replicate number 1): -1 |
| CN[C@@H](C)C(=O)N[C@H](C(=O)N1CCC[C@H]1c1nc(C(=O)c2ccc(F)cc2)cs1)C1CCCCC1 [LCL-161] | 0.96 |  |  | 0.19 |  |  | -0.96 | 0.22 | 0.84 | 0.95 |  |  | -0.08 | 0.45 | 0.91 |  |  |  | 0.88 | 0.85 | Growth Rate (HEK-293T; 12 h, replicate number 1): 0.4; Growth Rate (HEK-293T; 18 h, replicate number 1): 0.53; Growth Rate (HEK-293T; 24 h, replicate number 1): 0.84 |
| CN1C(=O)c2c(nn(Cc3ccc(-c4cccc(F)n4)cc3)c2Nc2ccccc2)N2C1=N[C@@H]1CCC[C@@H]12.O=P(O)(O)O [LENRISPODUN PHOSPHATE] | 0.5 |  |  |  | 0.65 | 0.85 | 0.18 |  |  | 0.71 | 0.79 | 0.83 | 0.51 | 0.84 | 0.67 |  | 0.68 |  | 0.94 |  | Growth Rate (Fibroblast; 0 h, replicate number 1): -1 |
| C[C@@H]1C[C@H](N)C[C@H](c2ccncc2NC(=O)c2ccc(F)c(-c3c(F)cccc3F)n2)C1 [LGH-447] | 0.59 | 0.09 |  | 0.93 | 0.9 |  |  | -0.02 | 0.11 | 0.54 | 0.54 | 0.57 |  | -0.22 | 0.82 |  | 0.98 | 0.96 | 0.58 | 0.44 | Growth Rate (Fibroblast; 12 h, replicate number 1): 0.96; Growth Rate (Fibroblast; 18 h, replicate number 1): 0.87; Growth Rate (Fibroblast; 24 h, replicate number 1): 0.67; Growth Rate (HEK-293T; 12 h, replicate number 1): 0.2; Growth Rate (HEK-293T; 18 h, replicate number 1): 0.27; Growth Rate (HEK-293T; 24 h, replicate number 1): 0.36 |
| C[C@H](CCC(=O)O)[C@H]1CC[C@H]2[C@@H]3CC[C@@H]4C[C@H](O)CC[C@]4(C)[C@H]3CC[C@]12C [LITHOCHOLIC ACID] | 0.68 | 0.27 |  |  | 0.76 | 0.14 |  |  | 0.73 | 0.67 | 0.77 |  | -0.56 | 0.93 | 0.74 |  | 0.83 |  | 0.87 | 0.89 |  |
| CN1[C@@H](CC(=O)c2ccccc2)CCC[C@H]1C[C@H](O)c1ccccc1.Cl [LOBELINE HYDROCHLORIDE] | 0.92 | -0.71 | 0.48 | 0.28 | 0.64 |  |  | 0.43 | 0.24 |  |  |  | 0.28 | 0.83 |  | 1 |  | 0.87 |  | 0.83 | Growth Rate (U2OS; 0 h, replicate number 2): -0.67; Growth Rate (Fibroblast; 18 h, replicate number 1): 0.91; Growth Rate (Fibroblast; 24 h, replicate number 1): 0.58; Growth Rate (HEK-293T; 12 h, replicate number 1): 0.62 |
| CC(C)CC(=O)Nc1cncc(-c2ccc3[nH]nc(-c4nc5c(-c6cccc(F)c6)cncc5[nH]4)c3c2)c1 [LORECIVIVINT] | -0.71 | -0.25 | -1 | -0.98 | -0.68 |  |  | -0.99 | -0.98 | -0.78 | -0.58 | -0.44 |  | -0.98 | -0.52 | -0.47 | -0.44 | -0.42 | -0.37 | -0.13 | Growth Rate (U2OS; 0 h, replicate number 2): -0.42; Growth Rate (U2OS; 6 h, replicate number 2): -0.82; Growth Rate (U2OS; 12 h, replicate number 2): -0.62; Growth Rate (Fibroblast; 0 h, replicate number 1): -0.18; Growth Rate (HEK-293T; 12 h, replicate number 1): -0.89; Growth Rate (HEK-293T; 18 h, replicate number 1): -0.67; Growth Rate (HEK-293T; 24 h, replicate number 1): -0.41 |
| Fc1ccc(-c2c3cccc(C(F)(F)F)c3nn2Cc2ccc(F)cc2Cl)cc1 [LXR-623] |  |  | -0.18 | 0.35 | 0.12 | 0.13 | -0.86 | 0.77 | 0.3 | 0.57 | 0.76 | 0.73 |  |  |  | 0.94 |  | 0.9 | -0.04 | 0.03 | Growth Rate (U2OS; 0 h, replicate number 2): 0.79; Growth Rate (U2OS; 6 h, replicate number 2): 0.69; Growth Rate (U2OS; 12 h, replicate number 2): 0.95; Growth Rate (Fibroblast; 12 h, replicate number 1): -0.03; Growth Rate (Fibroblast; 18 h, replicate number 1): -0.12; Growth Rate (Fibroblast; 24 h, replicate number 1): -0.06; Growth Rate (HEK-293T; 12 h, replicate number 1): 0.75; Growth Rate (HEK-293T; 18 h, replicate number 1): 0.77; Growth Rate (HEK-293T; 24 h, replicate number 1): 0.91 |
| CC(C)(C)C(=O)NCc1ccc(Cl)c(C(=O)Nc2ncc[nH]2)c1 [LY-3031207] |  | 0.1 | 0.85 | -0.3 | 0.86 | 0.13 | -0.13 |  |  |  |  |  | 0.65 |  |  | 0.97 |  | 0.94 |  |  | Growth Rate (U2OS; 12 h, replicate number 2): 0.95; Growth Rate (Fibroblast; 24 h, replicate number 1): 0.89 |
